Assay: Assessment of stability: cannabinoid concentrations by HPLC on stored capsules
Details: 40-day incubation at 40° C., dark conditions

Row | Compound | stability of cannabinoid in the formulations (HPLC)
1 | C=C(C)[C@@H]1CCC(C)=C[C@H]1c1c(O)cc(CCCCC)cc1O [CBD, cannabidiol] | remains stable
2 | CCCCCc1cc(O)c2c(c1)OC(C)(C)[C@@H]1CCC(C)=C[C@@H]21 [THC, Tetrahydrocannabinol] | degrades significantly

Source: patent US11998632B2, “Oral cannabinoid compositions and methods for treating neuropathic pain” (Avicanna Inc., priority 2019, dated 2024)
